PubChem BioAssay AID2060891 (Molecular Pharmacology Branch, DTP, NCI, 2025)
Blank lines part the entries; values can stand above or below the compound they belong to.

Test system: K98450-129-R-PDC complex spheroid growth, percent test/control
Assay: Anticancer human tumor K98450-129-R-PDC patient-derived colon adenocarcinoma cell line growth inhibition [RAS]
Settings: for IC50: curve of first compound; for viability, T/C: stronger effect = lower value
Text: RAS pathway inhibitors in Combinations in Complex Spheroids
A high-throughput screen of multi-cell type tumor spheroids was designed to identify active combinations of RAS pathway inhibitors and targeted small molecules. Complex spheroids include a stromal component modeled by human endothelial cells (HUVEC) and fibroblasts modeled by human mesenchymal stem cells (MSCs). The concentration ranges selected for each drug and investigational agent were based upon clinically achievable concentrations if the clinical Cmax of the agent was known.
Compounds. The drugs and investigational agents: abemaciclib (NSC768073), cobimetinib (NSC768068), divarasib (GDC6063, NSC841802), docetaxel (NSC628503), GDC-1971 (RLY-1971, NSC841576), gemcitabine (NSC613327), inavolisib (NSC800729), ipatasertib (NSC767898), KB-0742 (NSC834161), MRTX-1133 (NSC836407), osimertinib (NSC779217), RMC-4630 (NSC839698), RMC-6236 (NSC851965), RMC-6291 (NSC852671), Ro-3306 (NSC812927), sapanisertib (NSC764658), SN-38 (NSC673596), staurosporine (NSC755774), SY5609 (NSC837396), and tovorafenib (DAY101, NSC766906), were obtained from the National Cancer Institute (NCI) Developmental Therapeutics Program Chemical Repository. The FDA-approved anticancer drug set is available from the NCI Developmental Therapeutics Program. […] The stock solutions were prepared in dimethyl sulfoxide (DMSO, Sigma-Aldrich, St. Louis, MO, cat. D2650) at 800-fold the tested concentration and stored at -70 degrees C prior to their use. All drugs and investigational agents were tested over a range starting from a high concentration at or near the clinical Cmax and decreasing in half-log increments. If the clinical Cmax for an agent had not been determined, the highest concentration tested was 10 microM.
Cell Culture. All cells were maintained in an incubator at 37 degrees C and 5% CO2 with 95% humidity. The PDC lines were cultured according to standard operating procedures established by the NCI PDMR. All PDCs were thawed and cultured in Matrigel-coated flasks prepared with a working solution of 1X Ham's F-12 nutrient mix, without supplementation (Invitrogen, Waltham, MA, cat. 11765054), 100 U/mL penicillin-streptomycin (Invitrogen, cat. 15140122), and 2.5% Matrigel (Corning Inc., Corning, NY, cat. 354248) for the first three passages. The 362531-283-R-J2-PDC and 782815-120-R-J1-PDC lines were cultured in 6C/Colon 1B media, which includes advanced DMEM/F-12 (Thermo Fisher Scientific, cat. 12634028), 10 mM HEPES (Thermo Fisher Scientific, cat. 15630080), 1X GlutaMAX supplement (Thermo Fisher Scientific, cat. 35050061), 0.1 mg/mL primocin (InvivoGen, San Diego, CA, cat. ant-pm-2), 10% defined fetal bovine serum, heat inactivated (HyClone Laboratories Inc., Logan, UT, cat. SH30070.03HI), 50% L-WRN conditioned media (ATCC, cat. CRL-3276), 1.25 mM N-Acetyl-L-cysteine (Sigma-Aldrich, cat. A9165), 10 mM nicotinamide (Sigma-Aldrich, cat. N0636), 1X B-27 supplement (Thermo Fisher Scientific, cat. 17504044), 1X N-2 supplement (Thermo Fisher Scientific, cat. 17502048), 50 ng/mL human EGF (Thermo Fisher Scientific, cat. PHG0311), and 10 microM Y-27632 dihydrochloride (Tocris Bioscience, cat. 1254). The K12877-001-R-J1-PDC line was cultured in 6I media, which includes all 6C/Colon 1B media plus 10 ng/mL human FGF-10 (PeproTech, cat. 100-26), 1 ng/mL human FGF-2 (PeproTech, cat. 100-18B), 1 µM prostaglandin E2 (Tocris Bioscience, cat. 2296), […] hydrocortisone (Sigma-Aldrich, cat. H4001), and […] bovine insulin (Sigma-Aldrich, cat. I6634). The K86415-001-R-J1-PDC line was cultured in 6D media, which includes all 6C/Colon 1B media components minus the L-WRN conditioned media. The 485176-168-R4-J1-PDC was cultured in PANC media, which includes all 6C/Colon 1B media plus 100 ng/mL human FGF-10 (PeproTech, cat. 100-26), 500 nM SB-431542 (Selleckchem, cat. S1067), and 10 nM gastrin (Tocris Bioscience, cat. 3006). […]

[1] = second compound 0.0316 µM, first compound 0.0316 µM
[2] = second compound 0.0316 µM, first compound 0.1 µM
[3] = second compound 0.0316 µM, first compound 0.316 µM
[4] = second compound 0.0316 µM, first compound 1 µM
[5] = second compound 0.0316 µM, first compound 3.16 µM
[6] = second compound 0.0316 µM, first compound 10 µM
[7] = second compound 0.1 µM, first compound 0.0316 µM
[8] = second compound 0.1 µM, first compound 0.1 µM
[9] = second compound 0.1 µM, first compound 0.316 µM
[10] = second compound 0.1 µM, first compound 1 µM
[11] = second compound 0.1 µM, first compound 3.16 µM
[12] = second compound 0.1 µM, first compound 10 µM
[13] = second compound 0.316 µM, first compound 0.0316 µM
[14] = second compound 0.316 µM, first compound 0.1 µM
[15] = second compound 0.316 µM, first compound 0.316 µM
[16] = second compound 0.316 µM, first compound 1 µM
[17] = second compound 0.316 µM, first compound 3.16 µM
[18] = second compound 0.316 µM, first compound 10 µM
[19] = second compound 1 µM, first compound 0.0316 µM
[20] = second compound 1 µM, first compound 0.1 µM
[21] = second compound 1 µM, first compound 0.316 µM
[22] = second compound 1 µM, first compound 1 µM
[23] = second compound 1 µM, first compound 3.16 µM
[24] = second compound 1 µM, first compound 10 µM
[25] = second compound 3.16 µM, first compound 0.0316 µM
[26] = second compound 3.16 µM, first compound 0.1 µM
[27] = second compound 3.16 µM, first compound 0.316 µM
[28] = second compound 3.16 µM, first compound 1 µM
[29] = second compound 3.16 µM, first compound 3.16 µM
[30] = second compound 3.16 µM, first compound 10 µM
[31] = second compound 10 µM, first compound 0.0316 µM
[32] = second compound 10 µM, first compound 0.1 µM
[33] = second compound 10 µM, first compound 0.316 µM
[34] = second compound 10 µM, first compound 1 µM
[35] = second compound 10 µM, first compound 3.16 µM
[36] = second compound 10 µM, first compound 10 µM
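Further: spheroids exposed to agents for seven days before the viability readout.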
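Wherever viability, T/C is given: luminescence used as a proxy for viable cell amount.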

IC50 (second compound 0.0316 µM): > 10 µM
IC50 (second compound 0.1 µM): > 10 µM
IC50 (second compound 0.316 µM): > 10 µM
IC50 (second compound 1 µM): > 10 µM
IC50 (second compound 3.16 µM): > 10 µM
IC50 (second compound 10 µM): > 10 µM
SMILES: CC(C)NCC(C(=O)N1CCN(c2ncnc3c2C(C)CC3O)CC1)c1ccc(Cl)cc1 (stereo unspecified) + C#Cc1c(F)ccc2cc(O)cc(-c3ncc4c(N5CC6CCC(C5)N6)nc(OCC56CCCN5CC(F)C6)nc4c3F)c12
viability, T/C [1]: 110%
viability, T/C [2]: 106%
viability, T/C [3]: 92.9%
viability, T/C [4]: 99.2%
viability, T/C [5]: 104%
viability, T/C [6]: 96.7%
viability, T/C [7]: 110%
viability, T/C [8]: 96.9%
viability, T/C [9]: 106%
viability, T/C [10]: 98%
viability, T/C [11]: 113%
viability, T/C [12]: 103%
viability, T/C [13]: 105%
viability, T/C [14]: 96.1%
viability, T/C [15]: 110%
viability, T/C [16]: 97.3%
viability, T/C [17]: 104%
viability, T/C [18]: 98.6%
viability, T/C [19]: 99.5%
viability, T/C [20]: 96.8%
viability, T/C [21]: 96.1%
viability, T/C [22]: 95.7%
viability, T/C [23]: 104%
viability, T/C [24]: 99.2%
viability, T/C [25]: 95.7%
viability, T/C [26]: 86.5%
viability, T/C [27]: 97.3%
viability, T/C [28]: 93.8%
viability, T/C [29]: 98.7%
viability, T/C [30]: 88.2%
viability, T/C [31]: 83.9%
viability, T/C [32]: 82.6%
viability, T/C [33]: 81.9%
viability, T/C [34]: 85.9%
viability, T/C [35]: 91.5%
viability, T/C [36]: 81.9%

IC50 (second compound 0.0316 µM): > 10 µM
IC50 (second compound 0.1 µM): > 10 µM
IC50 (second compound 0.316 µM): > 10 µM
IC50 (second compound 1 µM): > 10 µM
IC50 (second compound 3.16 µM): > 10 µM
IC50 (second compound 10 µM): > 10 µM
SMILES: CC(Nc1ccc2c(c1)OCCn1cc(N3C(=O)OCC3C(F)F)nc1-2)C(N)=O (stereo unspecified) + C#Cc1c(F)ccc2cc(O)cc(-c3ncc4c(N5CC6CCC(C5)N6)nc(OCC56CCCN5CC(F)C6)nc4c3F)c12
viability, T/C [1]: 105%
viability, T/C [2]: 94.6%
viability, T/C [3]: 95.1%
viability, T/C [4]: 94.4%
viability, T/C [5]: 83.6%
viability, T/C [6]: 73.8%
viability, T/C [7]: 102%
viability, T/C [8]: 98.1%
viability, T/C [9]: 88.3%
viability, T/C [10]: 95.1%
viability, T/C [11]: 83%
viability, T/C [12]: 70.4%
viability, T/C [13]: 114%
viability, T/C [14]: 98.1%
viability, T/C [15]: 95.7%
viability, T/C [16]: 91.1%
viability, T/C [17]: 84.3%
viability, T/C [18]: 72.1%
viability, T/C [19]: 102%
viability, T/C [20]: 103%
viability, T/C [21]: 94.8%
viability, T/C [22]: 84%
viability, T/C [23]: 81.8%
viability, T/C [24]: 64.3%
viability, T/C [25]: 89.8%
viability, T/C [26]: 93.3%
viability, T/C [27]: 88.4%
viability, T/C [28]: 74.2%
viability, T/C [29]: 72.5%
viability, T/C [30]: 68.4%
viability, T/C [31]: 80.5%
viability, T/C [32]: 83.5%
viability, T/C [33]: 82.2%
viability, T/C [34]: 68.1%
viability, T/C [35]: 64.8%
viability, T/C [36]: 57.3%

IC50 (second compound 0.0316 µM): 0.187 µM
IC50 (second compound 0.1 µM): 0.185 µM
IC50 (second compound 0.316 µM): 0.17 µM
IC50 (second compound 1 µM): 0.171 µM
IC50 (second compound 3.16 µM): 0.159 µM
IC50 (second compound 10 µM): 0.125 µM
SMILES: O=C(c1ccc(F)c(F)c1Nc1ccc(I)cc1F)N1CC(O)([C@@H]2CCCCN2)C1 + C#Cc1c(F)ccc2cc(O)cc(-c3ncc4c(N5CC6CCC(C5)N6)nc(OCC56CCCN5CC(F)C6)nc4c3F)c12
viability, T/C (second compound 0.0316 µM, first compound 0.00316 µM): 108%
viability, T/C (second compound 0.0316 µM, first compound 0.01 µM): 105%
viability, T/C [1]: 90.7%
viability, T/C [2]: 87.1%
viability, T/C [3]: 19.3%
viability, T/C [4]: 3.6%
viability, T/C (second compound 0.1 µM, first compound 0.00316 µM): 113%
viability, T/C (second compound 0.1 µM, first compound 0.01 µM): 100%
viability, T/C [7]: 107%
viability, T/C [8]: 84.3%
viability, T/C [9]: 20.2%
viability, T/C [10]: 4.03%
viability, T/C (second compound 0.316 µM, first compound 0.00316 µM): 109%
viability, T/C (second compound 0.316 µM, first compound 0.01 µM): 106%
viability, T/C [13]: 95.6%
viability, T/C [14]: 77.7%
viability, T/C [15]: 18.3%
viability, T/C [16]: 4.22%
viability, T/C (second compound 1 µM, first compound 0.00316 µM): 105%
viability, T/C (second compound 1 µM, first compound 0.01 µM): 99.8%
viability, T/C [19]: 93.2%
viability, T/C [20]: 77.3%
viability, T/C [21]: 19.3%
viability, T/C [22]: 3.49%
viability, T/C (second compound 3.16 µM, first compound 0.00316 µM): 97%
viability, T/C (second compound 3.16 µM, first compound 0.01 µM): 89.7%
viability, T/C [25]: 91.3%
viability, T/C [26]: 73.1%
viability, T/C [27]: 15.6%
viability, T/C [28]: 4.86%
viability, T/C (second compound 10 µM, first compound 0.00316 µM): 86%
viability, T/C (second compound 10 µM, first compound 0.01 µM): 82.1%
viability, T/C [31]: 70.5%
viability, T/C [32]: 60.7%
viability, T/C [33]: 12.1%
viability, T/C [34]: 3.34%
